According to ChEMBL document CHEMBL1201862, “PubChem BioAssay data set” (2004):
The source made the active and inactive calls.

Key:
[1] = target: T1, Tyrosine-protein phosphatase non-receptor type 7 (Homo sapiens, UniProt P35236); format: functional
T1 sequence (P35236 whole entry): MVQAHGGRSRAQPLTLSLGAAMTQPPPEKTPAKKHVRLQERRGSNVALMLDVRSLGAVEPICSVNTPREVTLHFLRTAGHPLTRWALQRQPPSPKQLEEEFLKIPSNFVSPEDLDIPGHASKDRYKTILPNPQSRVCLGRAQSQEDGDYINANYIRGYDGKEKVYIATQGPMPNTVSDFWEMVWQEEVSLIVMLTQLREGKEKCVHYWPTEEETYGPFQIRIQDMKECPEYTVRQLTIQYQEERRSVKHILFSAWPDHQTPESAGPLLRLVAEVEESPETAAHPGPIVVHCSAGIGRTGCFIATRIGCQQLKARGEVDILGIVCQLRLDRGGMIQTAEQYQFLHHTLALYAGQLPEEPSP

[2] = target: Glyceraldehyde-3-phosphate dehydrogenase (Homo sapiens, UniProt P04406)
Sequence of Glyceraldehyde-3-phosphate dehydrogenase (P04406 whole entry): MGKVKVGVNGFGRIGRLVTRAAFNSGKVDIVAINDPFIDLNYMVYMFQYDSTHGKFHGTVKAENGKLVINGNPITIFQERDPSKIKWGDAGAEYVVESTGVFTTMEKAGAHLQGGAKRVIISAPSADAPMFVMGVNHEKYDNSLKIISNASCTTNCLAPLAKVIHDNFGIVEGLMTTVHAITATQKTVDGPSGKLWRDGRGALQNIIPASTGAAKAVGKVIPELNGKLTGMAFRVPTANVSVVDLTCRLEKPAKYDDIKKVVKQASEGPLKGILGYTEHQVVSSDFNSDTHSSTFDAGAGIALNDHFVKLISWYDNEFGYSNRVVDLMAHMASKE

[3] = target: T2, Dual specificity protein phosphatase 6 (Rattus norvegicus, UniProt Q64346)
T2 sequence (Q64346 whole entry): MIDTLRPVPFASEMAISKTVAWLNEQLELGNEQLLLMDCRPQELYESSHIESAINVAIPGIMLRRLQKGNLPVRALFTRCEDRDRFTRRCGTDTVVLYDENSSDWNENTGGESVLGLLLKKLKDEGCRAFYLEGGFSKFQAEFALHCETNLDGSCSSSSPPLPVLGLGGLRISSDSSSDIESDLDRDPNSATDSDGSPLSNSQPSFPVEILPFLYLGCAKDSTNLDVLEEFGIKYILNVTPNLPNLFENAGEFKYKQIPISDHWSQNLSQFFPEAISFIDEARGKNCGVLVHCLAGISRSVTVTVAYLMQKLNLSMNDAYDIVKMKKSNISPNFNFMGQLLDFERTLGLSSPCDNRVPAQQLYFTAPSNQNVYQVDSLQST

[4] = target: T2, Dual specificity protein phosphatase 6; format: functional
[5] = system: Jurkat; experiment: blockers of NF-kB activation in T cells – Jurkat, luciferase reporter, luminescence, B- and T-cell, dose response (AID 489004); format: functional, cell-based; settings: Homo sapiens;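 note: NF-kB luciferase reporter Jurkat cells stimulated with PMA plus ionomycin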
[6] = HEK-293T viability loss, compound-treated – cell-based, uHTS hits, cytotoxicity control for B/T-cell NF-kB inhibitor project, dose response (AID 489019); format: functional;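 note: IC50 reflects cytotoxicity as loss of cell viability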
[7] = decrease of insulin promoter-GFP reporter – imaging, high-content screening, mouse beta cells (AID 1628); format: functional; settings: MIN6
[8] = MIN6 cell viability loss – mouse insulinoma, cytotoxicity control, dose response (AID 2122); format: functional;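 note: confirmatory high-throughput counterscreen run to flag cytotoxic compounds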
[9] = viability loss in HeLa cells – cytotoxicity control for MgcRacGAP inhibitor project, dose response (AID 624300); format: functional
[10] = target: T3, Rac GTPase-activating protein 1 (Homo sapiens, UniProt Q9H0H5); experiment: blockers of MgcRacGAP-driven Rac1 GTP hydrolysis – biochemical, ADP Hunter fluorescence, primary and confirmatory, confirmation (AID 624330); format: functional
T3 sequence (Q9H0H5 whole entry): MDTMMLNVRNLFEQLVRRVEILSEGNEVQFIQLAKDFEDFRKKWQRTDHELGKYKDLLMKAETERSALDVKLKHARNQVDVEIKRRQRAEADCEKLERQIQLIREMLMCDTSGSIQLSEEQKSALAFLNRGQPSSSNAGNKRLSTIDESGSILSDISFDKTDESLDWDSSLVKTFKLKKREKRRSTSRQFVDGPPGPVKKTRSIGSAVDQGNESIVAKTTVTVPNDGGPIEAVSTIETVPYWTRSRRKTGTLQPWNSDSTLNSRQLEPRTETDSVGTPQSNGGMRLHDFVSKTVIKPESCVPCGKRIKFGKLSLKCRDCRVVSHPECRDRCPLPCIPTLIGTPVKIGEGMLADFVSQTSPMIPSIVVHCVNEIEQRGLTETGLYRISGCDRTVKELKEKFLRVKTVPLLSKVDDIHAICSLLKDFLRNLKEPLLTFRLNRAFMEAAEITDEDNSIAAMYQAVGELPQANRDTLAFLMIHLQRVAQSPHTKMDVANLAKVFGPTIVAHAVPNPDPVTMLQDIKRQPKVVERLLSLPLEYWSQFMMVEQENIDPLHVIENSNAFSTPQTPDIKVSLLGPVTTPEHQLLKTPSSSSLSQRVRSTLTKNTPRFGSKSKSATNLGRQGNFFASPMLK

[11] = system: Candida albicans; experiment: fluconazole-resistant Candida strain growth inhibitors – CaCi-8 strain, dry powder, set 4, dose response (AID 488950); format: functional, organism-based
[12] = system: Candida albicans; experiment: C. albicans growth inhibition with fluconazole – CaCi-2 strain, Alamar Blue, dry powder, set 4, dose response (AID 488943); format: functional, organism-based
[13] = system: Candida albicans; experiment: antifungal activity against resistant Candida strain – CaCi-8, fluconazole, Alamar Blue, dry powder, dose response (AID 488807); format: functional, organism-based
[14] = system: NIH3T3; experiment: mammalian cell viability counter-check – Alamar Blue, fluconazole, dry powder, cytotoxicity control for antifungal drug resistance project, dose response (AID 488809); format: functional, cell-based; settings: Mus musculus
[15] = target: Transitional endoplasmic reticulum ATPase (Homo sapiens, UniProt P55072, C522A); experiment: C522A mutant p97 ATPase inhibitors, dose response, counter-screen for p97 inhibitor project, biochemical, luminescence (AID 1544)
[16] = target: Transitional endoplasmic reticulum ATPase (Homo sapiens, UniProt P55072); experiment: p97 ATPase inhibitors, dose response, biochemical (AID 1534)
[17] = target: Glucose-6-phosphate 1-dehydrogenase (Homo sapiens, UniProt P11413); experiment: inhibition of Homo sapiens G6PD, dose series – biochemical, fluorescence, selectivity assay for P. falciparum G6PD inhibitor project, dose response (AID 504792); format: functional
Sequence of Glucose-6-phosphate 1-dehydrogenase (P11413 whole entry): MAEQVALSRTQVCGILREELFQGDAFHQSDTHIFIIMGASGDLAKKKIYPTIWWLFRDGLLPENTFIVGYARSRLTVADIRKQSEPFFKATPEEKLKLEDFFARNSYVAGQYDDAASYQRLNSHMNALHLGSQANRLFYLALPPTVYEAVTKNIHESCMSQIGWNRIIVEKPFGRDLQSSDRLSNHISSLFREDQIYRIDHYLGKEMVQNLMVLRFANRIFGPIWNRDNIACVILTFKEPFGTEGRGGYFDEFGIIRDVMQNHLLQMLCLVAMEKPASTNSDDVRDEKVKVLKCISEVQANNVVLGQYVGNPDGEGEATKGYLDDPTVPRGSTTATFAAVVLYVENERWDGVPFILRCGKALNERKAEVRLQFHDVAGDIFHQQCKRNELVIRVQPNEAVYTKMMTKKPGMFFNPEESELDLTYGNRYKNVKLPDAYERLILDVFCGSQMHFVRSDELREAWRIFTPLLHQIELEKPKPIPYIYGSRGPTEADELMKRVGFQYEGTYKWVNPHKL

[18] = target: Beta-arrestin-1 (Homo sapiens, UniProt P49407); experiment: beta-arrestin/AP2 interaction blockers, potency – biochemical, cherry pick 1, beta2-adaptin appendage, flow cytometry, dose response (AID 588783); format: functional
Sequence of Beta-arrestin-1 (P49407 whole entry): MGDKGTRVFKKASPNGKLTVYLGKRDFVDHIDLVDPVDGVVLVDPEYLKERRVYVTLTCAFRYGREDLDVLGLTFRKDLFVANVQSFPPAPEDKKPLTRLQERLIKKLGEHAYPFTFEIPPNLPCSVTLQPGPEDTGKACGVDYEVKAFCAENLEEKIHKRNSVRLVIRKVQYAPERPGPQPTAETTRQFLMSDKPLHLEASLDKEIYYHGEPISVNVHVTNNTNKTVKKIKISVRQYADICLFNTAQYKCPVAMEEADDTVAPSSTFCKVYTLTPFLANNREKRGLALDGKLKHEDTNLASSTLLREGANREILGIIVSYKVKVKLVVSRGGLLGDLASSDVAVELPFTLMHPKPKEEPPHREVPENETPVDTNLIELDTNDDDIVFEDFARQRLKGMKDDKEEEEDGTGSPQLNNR

[19] = target: Genome polyprotein (dengue virus type 2, UniProt P29990); experiment: flavivirus cap methylation enzyme inhibition – biochemical, confirmation dose response, primary screen (AID 588689); format: functional
[20] = target: T4, Polyadenylate-binding protein 1 (Homo sapiens, UniProt P11940); experiment: MLLE binding blockers, Cy5 peptide tracer – biochemical, fluorescence polarization, Cy5-PAM2 peptide, secondary, miRNA deadenylation inhibitor project, dose response (AID 602260); format: functional; settings: read-out: IC50_Mean
T4 sequence (P11940 whole entry, the tested form may be a part): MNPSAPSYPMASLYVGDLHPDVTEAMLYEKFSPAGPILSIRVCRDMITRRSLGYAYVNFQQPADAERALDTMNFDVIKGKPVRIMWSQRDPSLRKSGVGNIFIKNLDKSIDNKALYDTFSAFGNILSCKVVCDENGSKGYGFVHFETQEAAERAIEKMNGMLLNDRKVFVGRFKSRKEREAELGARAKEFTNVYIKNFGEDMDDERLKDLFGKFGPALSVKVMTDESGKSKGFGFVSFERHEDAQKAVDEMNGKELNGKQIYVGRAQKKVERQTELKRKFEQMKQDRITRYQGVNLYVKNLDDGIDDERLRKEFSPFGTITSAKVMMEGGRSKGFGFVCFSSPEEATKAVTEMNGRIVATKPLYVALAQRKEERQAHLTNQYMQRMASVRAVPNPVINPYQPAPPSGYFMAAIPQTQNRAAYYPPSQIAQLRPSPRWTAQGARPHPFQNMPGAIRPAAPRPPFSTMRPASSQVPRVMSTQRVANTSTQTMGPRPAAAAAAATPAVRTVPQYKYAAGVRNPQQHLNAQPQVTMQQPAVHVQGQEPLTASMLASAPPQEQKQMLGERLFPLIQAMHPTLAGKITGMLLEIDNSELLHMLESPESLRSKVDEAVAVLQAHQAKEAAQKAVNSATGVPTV

[21] = target: T4, Polyadenylate-binding protein 1; experiment: MLLE domain peptide-binding blockers, IC50 – biochemical, fluorescence polarization, FITC-PAM2 peptide, dose response (AID 602259); format: functional; settings: read-out: IC50_Mean
[22] = target: T5, Caspase-6 (Homo sapiens, UniProt P55212); experiment: inhibition of CASP6 peptide cleavage – biochemical, VEID-R110 fluorescence, cherry-pick, dose response (AID 720632)
T5 sequence (P55212 whole entry): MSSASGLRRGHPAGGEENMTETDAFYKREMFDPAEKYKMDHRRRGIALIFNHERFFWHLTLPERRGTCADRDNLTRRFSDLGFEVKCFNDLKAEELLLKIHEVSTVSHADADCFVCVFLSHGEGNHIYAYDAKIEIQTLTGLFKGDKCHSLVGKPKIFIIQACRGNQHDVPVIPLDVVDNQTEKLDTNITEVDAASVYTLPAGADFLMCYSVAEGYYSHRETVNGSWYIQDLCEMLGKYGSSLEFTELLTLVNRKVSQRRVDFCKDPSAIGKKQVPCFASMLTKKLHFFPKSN

[23] = target: Voltage-gated inwardly rectifying potassium channel KCNH2 (Homo sapiens, UniProt Q12809); settings: Potency;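 note: confirmatory quantitative high-throughput screen measuring inhibition of hERG channel activity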
Sequence of Voltage-gated inwardly rectifying potassium channel KCNH2 (Q12809 whole entry): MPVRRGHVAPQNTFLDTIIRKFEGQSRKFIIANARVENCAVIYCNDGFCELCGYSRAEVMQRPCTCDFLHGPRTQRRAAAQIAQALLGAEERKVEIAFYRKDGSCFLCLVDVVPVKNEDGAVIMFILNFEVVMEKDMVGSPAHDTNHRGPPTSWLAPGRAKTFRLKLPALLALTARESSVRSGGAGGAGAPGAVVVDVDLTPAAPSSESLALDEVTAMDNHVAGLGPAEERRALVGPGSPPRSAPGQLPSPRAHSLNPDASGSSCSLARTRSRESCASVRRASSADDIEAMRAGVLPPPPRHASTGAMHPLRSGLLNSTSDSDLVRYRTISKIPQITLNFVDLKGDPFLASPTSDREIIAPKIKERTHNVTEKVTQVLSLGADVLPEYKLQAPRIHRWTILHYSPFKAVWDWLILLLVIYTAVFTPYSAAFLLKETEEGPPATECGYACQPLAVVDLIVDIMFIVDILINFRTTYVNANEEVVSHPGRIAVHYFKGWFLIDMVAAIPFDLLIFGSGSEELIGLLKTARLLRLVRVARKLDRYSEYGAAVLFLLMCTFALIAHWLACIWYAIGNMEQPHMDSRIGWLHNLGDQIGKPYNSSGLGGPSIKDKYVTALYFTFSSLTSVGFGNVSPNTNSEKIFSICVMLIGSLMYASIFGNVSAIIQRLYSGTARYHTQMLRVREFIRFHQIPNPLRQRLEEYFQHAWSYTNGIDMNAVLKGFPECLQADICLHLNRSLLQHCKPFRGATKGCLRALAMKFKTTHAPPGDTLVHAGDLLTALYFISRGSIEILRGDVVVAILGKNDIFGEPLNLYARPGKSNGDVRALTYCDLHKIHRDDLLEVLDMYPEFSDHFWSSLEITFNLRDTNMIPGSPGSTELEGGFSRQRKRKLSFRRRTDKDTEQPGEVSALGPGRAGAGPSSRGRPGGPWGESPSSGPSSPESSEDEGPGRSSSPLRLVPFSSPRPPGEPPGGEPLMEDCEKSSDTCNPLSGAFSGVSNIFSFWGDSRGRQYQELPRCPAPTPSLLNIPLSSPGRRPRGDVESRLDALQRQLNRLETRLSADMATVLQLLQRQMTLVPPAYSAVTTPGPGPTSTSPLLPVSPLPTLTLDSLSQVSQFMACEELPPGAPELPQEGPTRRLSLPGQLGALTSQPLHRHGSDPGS

[24] = target: T6, CAAX prenyl protease 2 (Saccharomyces cerevisiae S288c, UniProt Q03530); format: biochemical
T6 sequence (Q03530 whole entry): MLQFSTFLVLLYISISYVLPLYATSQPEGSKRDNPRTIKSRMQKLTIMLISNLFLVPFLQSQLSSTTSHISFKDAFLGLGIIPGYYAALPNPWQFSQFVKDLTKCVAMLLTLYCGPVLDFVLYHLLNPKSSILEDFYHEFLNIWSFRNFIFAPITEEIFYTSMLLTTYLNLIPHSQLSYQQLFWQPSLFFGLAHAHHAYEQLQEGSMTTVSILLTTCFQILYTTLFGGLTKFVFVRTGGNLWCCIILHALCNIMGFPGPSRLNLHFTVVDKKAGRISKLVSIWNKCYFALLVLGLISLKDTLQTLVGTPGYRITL

[25] = target: T6, CAAX prenyl protease 2; experiment: inhibition of Rce1p peptide cleavage – biochemical, plate reader, dry powder retest, dose response (AID 588851)
[26] = target: CAAX prenyl protease 2 (Homo sapiens, UniProt Q9Y256); experiment: inhibition of Ras-converting CAAX protease Rce1 – biochemical, yeast membranes, quenched-peptide fluorescence, cherry-pick, dose response (AID 588849)
Sequence of CAAX prenyl protease 2 (Homo sapiens, UniProt Q9Y256) (Q9Y256 whole entry): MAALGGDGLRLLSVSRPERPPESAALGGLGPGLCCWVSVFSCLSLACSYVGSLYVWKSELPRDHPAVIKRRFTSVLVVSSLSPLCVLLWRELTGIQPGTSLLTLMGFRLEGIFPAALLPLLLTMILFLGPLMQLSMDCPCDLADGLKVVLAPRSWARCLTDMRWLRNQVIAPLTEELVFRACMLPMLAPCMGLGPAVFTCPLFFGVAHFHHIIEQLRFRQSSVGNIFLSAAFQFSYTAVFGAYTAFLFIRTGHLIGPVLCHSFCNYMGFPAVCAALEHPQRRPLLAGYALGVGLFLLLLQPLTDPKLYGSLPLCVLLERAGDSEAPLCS

[27] = system: HEK293; experiment: cells; format: functional, cell-based; settings: Homo sapiens
[28] = target: Nuclear receptor subfamily 0 group B member 1 (Homo sapiens, UniProt P51843); experiment: Luminescence-based cell-based high throughput dose response assay for inhibitors of the orphan nuclear receptor subfamily 0, group B, member 1 (DAX1; NR0B1). [Related pubchem assays (depositor defined):AID504766, AID504790]; format: functional
Sequence of Nuclear receptor subfamily 0 group B member 1 (P51843 whole entry): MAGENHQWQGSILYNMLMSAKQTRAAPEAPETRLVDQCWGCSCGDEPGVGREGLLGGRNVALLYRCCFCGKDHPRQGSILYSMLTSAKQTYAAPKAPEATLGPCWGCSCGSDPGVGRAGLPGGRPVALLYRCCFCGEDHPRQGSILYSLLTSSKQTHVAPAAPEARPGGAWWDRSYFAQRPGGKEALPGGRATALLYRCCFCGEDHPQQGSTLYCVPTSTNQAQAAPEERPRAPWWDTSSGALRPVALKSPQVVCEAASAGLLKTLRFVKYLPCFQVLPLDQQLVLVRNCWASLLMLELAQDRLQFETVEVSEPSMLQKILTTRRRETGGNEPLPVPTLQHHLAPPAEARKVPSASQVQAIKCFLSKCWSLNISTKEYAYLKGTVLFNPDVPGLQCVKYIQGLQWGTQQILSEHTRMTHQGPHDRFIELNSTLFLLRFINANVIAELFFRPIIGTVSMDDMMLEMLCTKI

[29] = target: NS3 (Hepatitis C virus, UniProt A3EZJ3); experiment: PubChem AID 2173; set-up: species or system Hepacivirus hominis
Sequence of NS3 (A3EZJ3 whole entry): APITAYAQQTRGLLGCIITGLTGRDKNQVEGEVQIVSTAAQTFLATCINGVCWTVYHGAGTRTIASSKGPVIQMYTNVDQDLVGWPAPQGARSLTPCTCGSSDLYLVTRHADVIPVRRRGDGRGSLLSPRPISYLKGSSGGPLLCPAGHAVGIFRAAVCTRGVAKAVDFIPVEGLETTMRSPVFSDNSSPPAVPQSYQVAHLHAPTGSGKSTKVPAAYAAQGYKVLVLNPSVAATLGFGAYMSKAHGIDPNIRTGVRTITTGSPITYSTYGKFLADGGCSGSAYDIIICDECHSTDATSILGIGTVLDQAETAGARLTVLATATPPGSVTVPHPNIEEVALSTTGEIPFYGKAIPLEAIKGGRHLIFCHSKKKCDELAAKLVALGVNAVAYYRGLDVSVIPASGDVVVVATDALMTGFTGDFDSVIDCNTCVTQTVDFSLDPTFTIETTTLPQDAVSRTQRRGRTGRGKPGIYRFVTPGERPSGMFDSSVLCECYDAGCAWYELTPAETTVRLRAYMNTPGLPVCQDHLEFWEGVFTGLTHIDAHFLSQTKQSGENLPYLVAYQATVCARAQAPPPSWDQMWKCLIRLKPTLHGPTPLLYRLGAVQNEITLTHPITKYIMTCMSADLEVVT

[30] = Late-stage probe development counterscreen for inhibitors of the Hepatitis C Virus non-structural protein 3 helicase (NS3): luminescence-based cell-based dose response assay to determine whether compounds that inhibit replication of HCV RNA replicon are cytotoxic. [Related pubchem assays (depositor defined):AID1800, AID1830, AID1845, AID1943, AID1945, AID2172, AID2173, AID2474, AID2476]; format: functional

CCOC(=O)C1Nc2c(OC)cccc2C2OCCCC12 (stereo not given)
IC50 [1]: > 100 µM (not active)
IC50 [2]: > 100 µM (not active)
IC50 [3]: > 100 µM (inactive)
IC50 [4]: > 100 µM (inactive)

C[C@H](NC(=O)c1nc[nH]c1C(=O)N[C@@H](C)C(=O)OCc1ccccc1)C(=O)OCc1ccccc1
IC50 [5]: 73.6 µM (inactive)
IC50 [6]: > 80 µM (inactive)

COc1ccc(-c2nc(-c3ccc(O)cc3O)cs2)cc1OC
IC50 [7]: 4.5 µM (active)
IC50 [8]: 14.1 µM (inactive)
CC50 [9]: 74.7 µM (active)
IC50 [10]: 55.1 µM (active)

O=C(c1cccs1)N1CCN(c2ccnc3cc(Cl)ccc23)CC1
AC50 [11]: 2.96 µM (active)
AC50 [12]: 1.71 µM (active)
AC50 [13]: 5.31 µM (active)
AC50 [14]: 17.9 µM (active)

NS(=O)(=O)c1ccc(N/N=C/c2ccc(O)c(O)c2O)c([N+](=O)[O-])c1
IC50 [15]: > 50 µM (not active)
IC50 [16]: > 50 µM (not active)
IC50 [17]: > 80 µM (inactive)
IC50 [18]: 11 µM (active)
IC50 [19]: 4.59 µM (active)
IC50 [20]: > 66 µM (inactive)
IC50 [21]: > 66 µM (inactive)
AC50 [22]: 0.351 µM (active)

NCCNC(=O)c1ncsc1-c1cccc(F)c1
AC50 [23]: 35.5 µM (inconclusive)

CCOc1cccc(-c2c(C(=O)N/N=C/c3cccs3)nnn2-c2nonc2N)c1
AC50 [24]: 1.53 µM (active)
AC50 [25]: 37.1 µM (active)
AC50 [26]: 15.3 µM (active)

COc1cc(C(=O)O)cc(OC)c1OC [3,4,5-TRIMETHOXYBENZOIC ACID]
IC50 [27]: > 67.5 µM (inactive)
IC50 [28]: > 67.5 µM (inactive)

COc1cc(C2C(C(=O)c3ccc(C)o3)=C(O)C(=O)N2c2cc(C)on2)ccc1OCc1ccccc1 (stereo not given)
IC50 [29]: 2.68 µM (active)
CC50 [30]: > 100 µM (inactive)
